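Cells were grown in 96-well plates and exposed to each compound for 48 hours at five concentrations; endpoints were interpolated linearly between bracketing concentrations, or set to the highest concentration if not reached. Abbreviation: GI50, concentration required for 50% inhibition of growth.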 The source made the active and inactive calls. No stated cut-off is given here; in the data, active = GI50 up to about 1.1 µM and inactive = higher.
Experiments:
Test in all cases: growth of human tumour cells (NCI), 48 h
RPMI-8226 = tested on: RPMI-8226
UACC-62 = tested on: UACC-62
HCT-15 = tested on: HCT-15
MDA-MB-231 = tested on: MDA-MB-231
NCI-H522 = tested on: NCI-H522
PC-3 = tested on: PC-3
TK-10 = tested on: TK-10
SK-MEL-5 = tested on: SK-MEL-5
SF-539 = tested on: SF-539
MDA-MB-435 = tested on: MDA-MB-435
NCI-H226 = tested on: NCI-H226
HOP-62 = tested on: HOP-62
T47D = tested on: T47D
UACC-257 = tested on: UACC-257
HCT-116 = tested on: HCT-116
U-251 = tested on: U-251
KM12 = tested on: KM12
NCI-H23 = tested on: NCI-H23
786-0 = tested on: 786-0
SK-MEL-2 = tested on: SK-MEL-2

Structure (SMILES)	GI50 (RPMI-8226)	GI50 (UACC-62)	GI50 (HCT-15)	GI50 (MDA-MB-231)	GI50 (NCI-H522)	GI50 (PC-3)	GI50 (TK-10)	GI50 (SK-MEL-5)	GI50 (SF-539)	GI50 (MDA-MB-435)	GI50 (NCI-H226)	GI50 (HOP-62)	GI50 (T47D)	GI50 (UACC-257)	GI50 (HCT-116)	GI50 (U-251)	GI50 (KM12)	GI50 (NCI-H23)	GI50 (786-0)	GI50 (SK-MEL-2)
Cc1cc([N+](=O)[O-])c(C)c(Br)c1C	> 100 µM (inactive)	> 100 µM (inactive)	> 100 µM	> 100 µM (inactive)	> 100 µM (inactive)	> 100 µM (inactive)	> 100 µM (inactive)	> 100 µM (inactive)	> 100 µM (inactive)	> 100 µM (inactive)	> 100 µM (inactive)	> 100 µM (inactive)	71 µM (inactive)	> 100 µM (inactive)	> 100 µM (inactive)	> 100 µM (inactive)	> 100 µM (inactive)	> 100 µM (inactive)	> 100 µM (inactive)	> 100 µM (inactive)
N#CC1=C2Sc3ccccc3N2[C@H](c2ccccc2)[C@H]2COC(=O)[C@@H]12	22.6 µM (inactive)	67.1 µM (inactive)	> 100 µM	> 100 µM (inactive)	11.2 µM (inactive)	> 100 µM (inactive)	38.9 µM (inactive)	> 100 µM (inactive)	> 100 µM (inactive)	> 100 µM (inactive)	> 100 µM (inactive)	> 100 µM (inactive)	35.6 µM (inactive)	> 100 µM (inactive)	> 100 µM (inactive)	45.2 µM (inactive)	63.2 µM (inactive)	77.3 µM (inactive)	> 100 µM (inactive)	48 µM (inactive)
COc1cc(C2SCC(=O)N2c2ccc(Oc3ccc(Cl)cc3)c(Cl)c2)cc(OC)c1OC (stereo not given)	29.4 µM (inactive)	16 µM (inactive)	26.2 µM	18.7 µM (inactive)	12 µM (inactive)	15.4 µM (inactive)	17.6 µM (inactive)	17.9 µM (inactive)	22.8 µM (inactive)	16 µM (inactive)	15.8 µM (inactive)	20.4 µM (inactive)	10.3 µM (inactive)	18.1 µM (inactive)	18.7 µM (inactive)	39.5 µM (inactive)	19.8 µM (inactive)	32.8 µM (inactive)	18.3 µM (inactive)	17.1 µM (inactive)
Cc1ccc(N2CCN(CCC(=O)O)CC2)cc1	> 100 µM (inactive)	> 100 µM (inactive)	> 100 µM	> 100 µM (inactive)	> 100 µM (inactive)	> 100 µM (inactive)	> 100 µM (inactive)	> 100 µM (inactive)	> 100 µM (inactive)	> 100 µM (inactive)	> 100 µM (inactive)	> 100 µM (inactive)	> 100 µM (inactive)	> 100 µM (inactive)	> 100 µM (inactive)	> 100 µM (inactive)	> 100 µM (inactive)	> 100 µM (inactive)	> 100 µM (inactive)	> 100 µM (inactive)
COc1ccccc1/C=C\C(=O)C1COCN1 (stereo not given)	2.24 µM (inactive)	14.5 µM (inactive)	14.7 µM	17.6 µM (inactive)	16 µM (inactive)	13.2 µM (inactive)	21.2 µM (inactive)	10.6 µM (inactive)	20.5 µM (inactive)	6.9 µM (inactive)	18.7 µM (inactive)	21.4 µM (inactive)	1.45 µM (inactive)	18.1 µM (inactive)	6.97 µM (inactive)	11.1 µM (inactive)	4.39 µM (inactive)	> 100 µM (inactive)	23.9 µM (inactive)	21.3 µM (inactive)
COc1cc(OC)c(/C=N\Nc2nc3ccccc3c(=O)n2-c2ccccc2)c(OC)c1	26.4 µM (inactive)	19.5 µM (inactive)	37.4 µM	23.8 µM (inactive)	26.6 µM (inactive)	26.3 µM (inactive)	34.1 µM (inactive)	26.2 µM (inactive)	18 µM (inactive)	24.5 µM (inactive)	19.4 µM (inactive)	19.4 µM (inactive)	24.6 µM (inactive)	27.5 µM (inactive)	20.1 µM (inactive)	32.1 µM (inactive)	> 31.6 µM (inactive)	58.5 µM (inactive)	17.7 µM (inactive)	25.4 µM (inactive)
CC(/C=N\NC(=S)N(C)C)=N/NC(=S)N(C)C	0.791 µM (active)	0.764 µM (active)	0.07 µM	29 µM (inactive)	0.243 µM (active)	0.577 µM (active)	0.507 µM (active)	0.505 µM (active)	0.74 µM (active)	0.881 µM (active)	0.843 µM (active)	0.327 µM (active)	0.0935 µM (active)	2.61 µM (inactive)	0.117 µM (active)	0.29 µM (active)	1.78 µM (inactive)	1.12 µM (inactive)	0.509 µM (active)	0.303 µM (active)
CC/C=C/C(/C=C/C[C@]1(CC)C[C@H](CC)[C@H](CC(=O)O)OO1)CC (stereo not given in full)	1.64 µM (inactive)	5.94 µM (inactive)	2.61 µM	4.88 µM (inactive)	1.75 µM (inactive)	1.67 µM (inactive)	1.91 µM (inactive)	2.85 µM (inactive)	1.82 µM (inactive)	2.06 µM (inactive)	20.8 µM (inactive)	1.58 µM (inactive)	2.75 µM (inactive)	14.5 µM (inactive)	2.46 µM (inactive)	1.62 µM (inactive)	1.62 µM (inactive)	2.24 µM (inactive)	1.67 µM (inactive)	4.01 µM (inactive)
c1ccc(CN2C3C4N(Cc5ccccc5)C2C2N(Cc5ccccc5)C(C(N2Cc2ccccc2)N4Cc2ccccc2)N3Cc2ccccc2)cc1	> 100 µM (inactive)	> 100 µM (inactive)	> 100 µM	> 100 µM (inactive)	> 100 µM (inactive)	> 100 µM (inactive)	> 100 µM (inactive)	> 100 µM (inactive)	> 100 µM (inactive)	> 100 µM (inactive)	> 100 µM (inactive)	> 100 µM (inactive)	> 100 µM (inactive)	> 100 µM (inactive)	> 100 µM (inactive)	> 100 µM (inactive)	> 100 µM (inactive)	> 100 µM (inactive)	> 100 µM (inactive)	> 100 µM (inactive)
Cc1ccc2c(c1)NC(=O)CC(c1ccccc1)=N2	17.4 µM (inactive)	> 100 µM (inactive)	61.4 µM	23.7 µM (inactive)	45.6 µM (inactive)	97.1 µM (inactive)	> 100 µM (inactive)	40 µM (inactive)	> 100 µM (inactive)	31 µM (inactive)	> 100 µM (inactive)	> 100 µM (inactive)	70.6 µM (inactive)	> 100 µM (inactive)	61.5 µM (inactive)	> 100 µM (inactive)	43.9 µM (inactive)	> 100 µM (inactive)	> 100 µM (inactive)	> 100 µM (inactive)

Reference: ChEMBL document CHEMBL1201862, “PubChem BioAssay data set” (2004)
